Assay results taken from PMC7248693, “Synthesis and Biological Evaluation of 2-Substituted Benzyl-/Phenylethylamino-4-amino-5-aroylthiazoles as Apoptosis-Inducing Anticancer Agents” (Molecules, 2020).

Legend:
SK-MEL-1 = assay: Antiproliferative activity, MTT assay, SK-MEL-1 cells; type: cell-based, human; conditions: Homo sapiens, SK-MEL-1; 72 h, MTT; mean ± SE, at least three independent experiments
Description: (§1) In Table 1, we summarize the antiproliferative activity of the 15 novel 2-arylalkylamino-4-amino-5-(3′,4′,5′-trimethoxybenzoyl)thiazole derivatives 8a–o against human leukemia (U-937) and melanoma (SK-MEL-1) tumor cells lines.
(§2) Human U-937 and SK-MEL-1 cell lines were from the German Collection of Microorganisms and Cell Cultures (Braunschweig, Germany; DSMZ No: ACC 5 and ACC 303, respectively). The U-937 is a myeloid leukemia cell line isolated from a histiocytic lymphoma. SK-MEL-1 is a melanoma cell line. Cells were cultured in suspension in RPMI 1640 medium supplemented with 10% (v/v) fetal bovine serum and antibiotics (100 μg mL^−1 streptomycin and 100 U mL^−1 penicillin), at 37 °C in a humidified atmosphere containing 5% CO2. The trypan blue exclusion method was used for counting the cells by a hemocytometer, and cell viability was always greater than 95% in all experiments. Compounds were dissolved in DMSO, and further dilutions were made in culture medium just before use. […] The effects on cell viability of synthetic compounds were determined using a colorimetric assay with the reduction of 3-(4,5-dimethyl-2-thiazolyl-)-2,5-diphenyl-2H-tetrazolium bromide (MTT) as previously described. Briefly, 5 × 10^3 cells were seeded in 96-well microculture plates with increasing concentrations of compounds for 72 h. Then, MTT (0.5 mg mL^−1) was added and incubated for 4 h, and the reaction was stopped with 20% sodium dodecyl sulfate. A570 was used as a measure of cell viability. Concentrations inducing a 50% inhibition of cell growth were determined graphically by nonlinear regression using the curve-fitting algorithm of GraphPad Prism 4.0 (GraphPad Inc La Jolla, CA, USA).

U-937 = assay: Antiproliferative activity, MTT assay, U-937 cells; type: cell-based, human; conditions: for IC50: Homo sapiens, U-937, 72 h, MTT, mean ± SE, at least three independent experiments
Description: as §1, §2

[1] = Cytotoxicity against peripheral blood lymphocytes, MTT assay; type: cell-based; conditions: human, peripheral blood lymphocytes (PBL) from healthy donors, read-out: IC50 cytotoxic activity against normal cells (PBL)
Experimental: In order to investigate the selective antiproliferative activity of the new synthesized compounds, we tested representative derivatives 8f and 8k against peripheral blood lymphocytes (PBL) isolated from healthy donors.
PBLs from healthy donors were obtained by separation on Lymphoprep (Fresenius KABI Norge AS, Halden, Norway) gradient. After extensive washing, cells were resuspended (1.0 × 10^6 cells/mL) in RPMI-1640 with 10% fetal bovine serum and incubated overnight in a 96-well tissue culture microtiter plate. Varying compound concentrations were added to the cells, and the MTT assay was used to assess viability after a 48 h treatment.

Bovine brain tubulin = assay: Inhibition of tubulin polymerization (turbidimetric assembly); type: biochemical; conditions: for IC50: 10 μM tubulin, 20 min incubation at 30 °C; for inhibition of tubulin polymerization: at high concentrations (up to 20 μM)
Experimental: Bovine brain tubulin was purified as described previously. To evaluate the effect of the compounds on tubulin assembly in vitro [31], varying concentrations were preincubated with 10 μM tubulin in glutamate buffer at 30 °C and then cooled to 0 °C. After addition of GTP, the mixtures were transferred to 0 °C cuvettes in a recording spectrophotometer and warmed to 30 °C, and the assembly of tubulin was observed turbidimetrically. The IC50 was defined as the compound concentration that inhibited the extent of assembly by 50% after a 20 min incubation.

CDK4/Cyclin D1 = target: T1, CDK4/Cyclin D1 (Homo sapiens, UniProt P11802); assay: In vitro CDK inhibition assay (ADP-Glo), CDK4; type: biochemical; conditions: single concentration of 10 μM; range over CDK4, CDK6, CDK9 and 8f, 8k; read-out: enzyme inhibition CDK4
T1 construct: purchased ProQinase
Experimental: (§3) The CDK4, 6 and 9 inhibitory activies were determined using the CDK4/Cyclin D1 Assay kit (ProQinase, Freiburg im Breisgau, Germany), CDK6/Cyclin D3 Kinase Enzyme System (Promega, Milan, Italy) and CDK9/CyclinK Kinase Enzyme System (Promega) by ADP-Glo CDK assays following the manufacturer’s instructions. The assay was performed with the test compounds at 10 μM.

U-937 leukemia cells = assay: Cell cycle analysis by flow cytometry (propidium iodide); type: cell-based, human
Experimental: Induction of apoptosis in cancer cells is recognized as an efficient strategy for cancer chemotherapy. For this reason, it was decided to determine whether these compounds display their cytotoxic action through alterations in cell cycle progression and induction of cell apotosis. To this end, the effects at different time periods (6, 12 and 24 h) with different concentrations (10 and 30 μM) of 8f and 8k on cell cycle progression on U-937 leukemia cells were investigated by flow cytometry analyses.
Flow cytometric analysis of propidium iodide-stained cells was performed as previously described. Briefly, U-937 cells were treated with the indicated compounds at the specified concentrations in RPMI 1640 medium. After treatments, cells were centrifuged for 10 min at 500× g, washed with cold phosphate-buffered saline (PBS), fixed with ice-cold 75% ethanol and stored at −20 °C for at least 1 h. Samples were then centrifuged at 500 × g for 10 min at 4 °C, washed with PBS, resuspended in 200 μL of PBS containing 100 μg mL^−1 RNase A and 50 μg mL^−1 propidium iodide and incubated for 1 h in the dark. The DNA content was analyzed by flow cytometry with a Becton-Dickinson FACSVerse^TM cytometer (BD Biosciences, San Jose, CA, USA). The percentage of cells in each phase of the cell cycle was determined for a minimum of 10^4 cells, and histograms were analyzed with Flowing 2.5.0 software.

CDK9/CyclinK = target: T2, CDK9/CyclinK (Homo sapiens, UniProt P50750); assay: In vitro CDK inhibition assay (ADP-Glo), CDK9; type: biochemical; conditions: single concentration of 10 μM; range over CDK4, CDK6, CDK9 and 8f, 8k; read-out: enzyme inhibition CDK9
T2 construct: purchased Promega
Experimental: as §3

CDK6/Cyclin D3 = target: T3, CDK6/Cyclin D3 (Homo sapiens, UniProt Q00534); assay: In vitro CDK inhibition assay (ADP-Glo), CDK6; type: biochemical; conditions: single concentration of 10 μM; range over CDK4, CDK6, CDK9 and 8f, 8k; read-out: enzyme inhibition CDK6
T3 construct: purchased Promega
Experimental: as §3

[2] = tested on: panel of four different cancer cell lines; set-up: method as in earlier work; conditions: read-out: IC50 against a panel of four different cancer cell lines; cited from earlier work
tubulin = conditions: previously reported series with general structure 2; reference not printed at the place; read-out: IC50 tubulin assembly assay; cited from earlier work
CDK9 = tested on: CDK9; set-up: method as in PMID 30454645; conditions: cited from earlier work

T2 sequence (P50750 whole entry): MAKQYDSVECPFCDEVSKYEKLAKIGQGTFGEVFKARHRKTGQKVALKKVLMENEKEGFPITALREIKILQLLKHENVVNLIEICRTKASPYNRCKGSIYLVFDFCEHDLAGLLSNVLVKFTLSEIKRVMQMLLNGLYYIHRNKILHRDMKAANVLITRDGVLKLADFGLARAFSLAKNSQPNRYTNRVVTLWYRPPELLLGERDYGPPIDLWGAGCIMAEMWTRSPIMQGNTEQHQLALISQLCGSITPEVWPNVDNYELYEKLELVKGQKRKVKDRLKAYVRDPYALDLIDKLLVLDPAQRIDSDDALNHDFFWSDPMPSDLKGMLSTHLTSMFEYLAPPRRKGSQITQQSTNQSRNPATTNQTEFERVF
T2 sequence (O75909 whole entry partner): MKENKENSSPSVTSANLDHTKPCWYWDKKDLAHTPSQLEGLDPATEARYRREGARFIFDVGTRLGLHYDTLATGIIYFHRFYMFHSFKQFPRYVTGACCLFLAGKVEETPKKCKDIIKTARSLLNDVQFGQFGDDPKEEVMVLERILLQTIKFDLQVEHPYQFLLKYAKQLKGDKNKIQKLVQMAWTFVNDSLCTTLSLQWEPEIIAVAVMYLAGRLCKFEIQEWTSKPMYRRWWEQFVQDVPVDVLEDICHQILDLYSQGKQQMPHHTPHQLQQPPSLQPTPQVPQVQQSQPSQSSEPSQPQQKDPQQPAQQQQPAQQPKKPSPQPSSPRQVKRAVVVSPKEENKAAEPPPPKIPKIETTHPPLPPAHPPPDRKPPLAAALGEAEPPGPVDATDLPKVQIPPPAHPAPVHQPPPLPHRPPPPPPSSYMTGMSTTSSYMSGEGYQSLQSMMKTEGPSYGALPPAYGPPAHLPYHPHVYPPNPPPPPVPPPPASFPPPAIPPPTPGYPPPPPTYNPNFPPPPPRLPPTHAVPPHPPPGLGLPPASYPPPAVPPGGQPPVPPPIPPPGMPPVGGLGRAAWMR
T1 sequence (P11802 whole entry): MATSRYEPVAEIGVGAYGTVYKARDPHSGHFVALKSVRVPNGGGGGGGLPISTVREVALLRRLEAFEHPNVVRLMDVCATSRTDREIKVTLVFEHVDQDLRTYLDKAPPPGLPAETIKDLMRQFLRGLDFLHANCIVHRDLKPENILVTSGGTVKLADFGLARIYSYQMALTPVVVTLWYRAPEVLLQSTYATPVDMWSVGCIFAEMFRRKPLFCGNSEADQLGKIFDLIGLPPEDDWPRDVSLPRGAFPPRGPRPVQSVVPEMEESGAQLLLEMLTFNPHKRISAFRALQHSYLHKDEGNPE
T1 sequence (P24385 whole entry partner): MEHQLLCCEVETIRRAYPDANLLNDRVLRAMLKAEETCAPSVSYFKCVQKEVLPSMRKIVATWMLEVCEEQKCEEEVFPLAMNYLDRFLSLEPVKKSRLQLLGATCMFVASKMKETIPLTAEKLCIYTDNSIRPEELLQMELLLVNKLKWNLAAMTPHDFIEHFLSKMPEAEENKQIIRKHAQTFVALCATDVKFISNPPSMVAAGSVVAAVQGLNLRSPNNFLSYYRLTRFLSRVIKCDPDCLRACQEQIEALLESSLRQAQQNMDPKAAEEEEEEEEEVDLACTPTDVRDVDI
T3 sequence (Q00534 whole entry): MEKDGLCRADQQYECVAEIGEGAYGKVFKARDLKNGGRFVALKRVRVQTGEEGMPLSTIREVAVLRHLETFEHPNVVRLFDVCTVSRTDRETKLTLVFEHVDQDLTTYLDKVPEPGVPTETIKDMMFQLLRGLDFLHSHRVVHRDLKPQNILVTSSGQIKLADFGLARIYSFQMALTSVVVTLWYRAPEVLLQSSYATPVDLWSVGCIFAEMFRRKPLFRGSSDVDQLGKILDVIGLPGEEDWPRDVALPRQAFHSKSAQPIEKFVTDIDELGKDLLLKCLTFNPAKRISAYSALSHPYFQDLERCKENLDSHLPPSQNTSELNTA
T3 sequence (P30281 whole entry partner): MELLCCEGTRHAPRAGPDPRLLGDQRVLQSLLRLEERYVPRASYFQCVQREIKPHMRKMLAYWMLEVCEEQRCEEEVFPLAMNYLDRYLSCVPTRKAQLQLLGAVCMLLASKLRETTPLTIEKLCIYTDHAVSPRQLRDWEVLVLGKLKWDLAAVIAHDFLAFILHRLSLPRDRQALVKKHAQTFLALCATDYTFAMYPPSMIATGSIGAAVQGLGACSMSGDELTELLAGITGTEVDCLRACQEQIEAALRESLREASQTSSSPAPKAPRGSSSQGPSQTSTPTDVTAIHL

SMILES | IC50 (SK-MEL-1) | IC50 (U-937) | IC50 at 48 h [1] | IC50 (Bovine brain tubulin) | inhibition of tubulin polymerization (Bovine brain tubulin) | inhibition at 10 µM (CDK4/Cyclin D1) | % G1 (U-937 leukemia cells; 6 h, 10 µM) | % G2-M (U-937 leukemia cells; 6 h, 10 µM) | % S (U-937 leukemia cells; 6 h, 10 µM) | % Sub-G1 (U-937 leukemia cells; 6 h, 10 µM) | % G1 (U-937 leukemia cells; 6 h, 30 µM) | % G2-M (U-937 leukemia cells; 6 h, 30 µM) | % S (U-937 leukemia cells; 6 h, 30 µM) | % Sub-G1 (U-937 leukemia cells; 6 h, 30 µM) | % G1 (U-937 leukemia cells; 12 h, 10 µM) | % G2-M (U-937 leukemia cells; 12 h, 10 µM) | % S (U-937 leukemia cells; 12 h, 10 µM) | % Sub-G1 (U-937 leukemia cells; 12 h, 10 µM) | % G1 (U-937 leukemia cells; 12 h, 30 µM) | % G2-M (U-937 leukemia cells; 12 h, 30 µM) | other results
COc1ccc(CCNc2nc(N)c(C(=O)c3cc(OC)c(OC)c(OC)c3)s2)cc1 [8k, (4-Amino-2-((4-methoxyphenethyl)amino)thiazol-5-yl)(3,4,5-trimethoxyphenyl)methanone] | 8 ± 4.3 µM | 5.7 ± 1.3 µM | > 100 µM | > 20 µM | did not show any noteworthy inhibition | 2 to 8% | 38.7 ± 0.3 % | 25.3 ± 0.2 % | 30.7 ± 0.1 % | 3.7 ± 0.4% | 35.6 ± 0.5 % | 23.1 ± 0.4% | 32.0 ± 0.5 % | 7.6 ± 0.5 % | 41.9 ± 0.1 % | 23.7 ± 1.4% | 20.2 ± 0.4% | 12.1 ± 0.8 % | 17.3 ± 0.4 % | 29.9 ± 1.7 % | increase of antiproliferative activity relative to 8j (U-937; cell line not specified (U-937 and SK-MEL-1)): 3-4 fold; % S (U-937 leukemia cells; 12 h, 30 µM): 26.8 ± 0.2 %; % Sub-G1 (U-937 leukemia cells; 12 h, 30 µM): 24.3 ± 1.5 %; % G1 (U-937 leukemia cells; 24 h, 10 µM): 39.4 ± 0.2 %; % G2-M (U-937 leukemia cells; 24 h, 10 µM): 17.2 ± 0.6%; % S (U-937 leukemia cells; 24 h, 10 µM): 28.4 ± 1.1 %; % Sub-G1 (U-937 leukemia cells; 24 h, 10 µM): 12.7 ± 0.1 %; % G1 (U-937 leukemia cells; 24 h, 30 µM): 11.2 ± 0.9 %; % G2-M (U-937 leukemia cells; 24 h, 30 µM): 23.8 ± 2.9 %; % S (U-937 leukemia cells; 24 h, 30 µM): 11.5 ± 0.4 %; % Sub-G1 (U-937 leukemia cells; 24 h, 30 µM): 51.5 ± 4.2 %; increase of apoptotic cells with respect to control cells (U-937 leukemia cells; 24 h, 30 µM): ~15 fold; inhibition at 10 µM (CDK9/CyclinK): 2 to 8%; inhibition at 10 µM (CDK6/Cyclin D3): 2 to 8%
COc1cc(C(=O)c2sc(N(C)Cc3ccccc3)nc2N)cc(OC)c1OC [3a] |  |  |  |  |  |  |  |  |  |  |  |  |  |  |  |  |  |  |  |  | IC50 [2]: < 200 µM
COc1cc(C(=O)c2sc(NCCc3ccc(Cl)cc3)nc2N)cc(OC)c1OC [8f, (4-Amino-2-((4-chlorophenethyl)amino)thiazol-5-yl)(3,4,5-trimethoxyphenyl)methanone] | 12.2 ± 3.2 µM | 6.7 ± 3.6 µM | > 100 µM | > 20 µM | did not show any noteworthy inhibition | 2 to 8% | 40.4 ± 1.0 % | 23.6 ± 1.3% | 29.3 ± 0.1 % | 4.4 ± 0.5% | 40.5 ± 1.6 % | 23.3 ± 1.4% | 30.9 ± 0.4 % | 3.8 ± 0.1% | 47.8 ± 1.0% | 21.5 ± 1.2% | 22.4 ± 0.2% | 6.5 ± 0.2 % | 27.4 ± 0.4 % | 27.6 ± 0.6 % | % S (U-937 leukemia cells; 12 h, 30 µM): 25.5 ± 0.1 %; % Sub-G1 (U-937 leukemia cells; 12 h, 30 µM): 17.8 ± 1.0 %; % G1 (U-937 leukemia cells; 24 h, 10 µM): 42.5 ± 0.3 %; % G2-M (U-937 leukemia cells; 24 h, 10 µM): 15.0 ± 0.8%; % S (U-937 leukemia cells; 24 h, 10 µM): 29.8 ± 0.3 %; % Sub-G1 (U-937 leukemia cells; 24 h, 10 µM): 10.3 ± 0.7 %; % G1 (U-937 leukemia cells; 24 h, 30 µM): 12.6 ± 0.7 %; % G2-M (U-937 leukemia cells; 24 h, 30 µM): 16.6 ± 0.8%; % S (U-937 leukemia cells; 24 h, 30 µM): 13.6 ± 0.6 %; % Sub-G1 (U-937 leukemia cells; 24 h, 30 µM): 56.2 ± 2.0 %; increase of apoptotic cells with respect to control cells (U-937 leukemia cells; 24 h, 30 µM): approximately 16.5 fold; inhibition at 10 µM (CDK9/CyclinK): 2 to 8%; inhibition at 10 µM (CDK6/Cyclin D3): 2 to 8%
COc1ccc(/C=C\c2cc(OC)c(OC)c(OC)c2)cc1O [CA-4, combretastatin A-4, reference compound] | 3.1 ± 2.9 µM | 0.019 ± 0.012 µM |  |  |  |  |  |  |  |  |  |  |  |  |  |  |  |  |  |  | IC50 (tubulin): 1.4 µM
Nc1nc(N[C@H]2CC3CCC2C3)sc1C(=O)c1ccccc1[N+](=O)[O-] (stereo partly drawn) [compound 7, 2-(exo-2′-aminonorbornane)-4-amino-5-(2′-nitrobenzoyl)-thiazole] |  |  |  |  |  |  |  |  |  |  |  |  |  |  |  |  |  |  |  |  | selectivity for CDK9 than for other CDKs (CDK9): at least 22 fold
COc1cc(C(=O)c2sc(Nc3ccc(C)cc3)nc2N)cc(OC)c1OC [2b] |  |  |  |  |  |  |  |  |  |  |  |  |  |  |  |  |  |  |  |  | IC50 (tubulin): 0.72 µM
